In patent publication US11207325B2, “Triazolopyrimidine compounds and uses thereof” (Novartis AG, priority 2014, dated 2021):

Tested on: H3K27 methylation in G401 cell
Assay: ELISA (H3K27 methylation) assay
Format: cell-based
Settings: Homo sapiens, G-401; ELISA Qualified assay (H3K27 methylation); read-out: (c) IC50 (μM), ELISA Qualified
Description: ELISA (H3K27 Methylation) Assay

| SMILES | IC50 [µM] |
| --- | --- |
| Cc1cc(C(=O)N(C)C)ncc1-c1cnc(NCc2c(F)ccc3c2CCO3)n2cnnc12 [Example 131, 5-(5-(((5-fluoro-2,3-dihydrobenzofuran-4-yl)methyl)amino)-[1,2,4]triazolo[4,3-c]pyrimidin-8-yl)-N,N,4-trimethylpicolinamide] | 0.0033 |
| Cc1cc(C)c(-c2cnc(NCc3c(F)ccc4c3CCO4)n3cnnc23)cn1 [Example 222, 8-(4,6-dimethylpyridin-3-yl)-N-((5-fluoro-2,3-dihydrobenzofuran-4-yl)methyl)-[1,2,4]triazolo[4,3-c]pyrimidin-5-amine] | 0.0576 |
| Nc1cc(F)c(-c2cnc(NCc3cccc4c3CCO4)n3cnnc23)cn1 [Example 58, 8-(6-amino-4-fluoropyridin-3-yl)-N-((2,3-dihydrobenzofuran-4-yl)methyl)-[1,2,4]triazolo[4,3-c]pyrimidin-5-amine] | 0.124 |
| c1cc(CNc2ncc(-c3cnn(C4CC4)c3)c3nncn23)c2c(c1)OCC2 [Example 149, 8-(1-cyclopropyl-1H-pyrazol-4-yl)-N-((2,3-dihydrobenzofuran-4-yl)methyl)-[1,2,4]triazolo[4,3-c]pyrimidin-5-amine] | 0.22 |
| CCNC(=O)c1ccc(-c2cnc(NCc3cccc4c3CCO4)n3cnnc23)cn1 [Example 114, 5-(5-(((2,3-dihydrobenzofuran-4-yl)methyl)amino)-[1,2,4]triazolo[4,3-c]pyrimidin-8-yl)-N-ethylpicolinamide] | 1.98 |
| N#Cc1ccc(-c2cnc(NCc3c(F)ccc4c3CCO4)n3cnnc23)cn1 [Example 93, 5-(5-(((5-fluoro-2,3-dihydrobenzofuran-4-yl)methyl)amino)-[1,2,4]triazolo[4,3-c]pyrimidin-8-yl)picolinonitrile] | 0.0241 |
| Fc1ccc2c(c1CNc1ncc(-c3ccc(Cl)cc3Cl)c3nncn13)CCO2 [Example 146, 8-(2,4-dichlorophenyl)-N-((5-fluoro-2,3-dihydrobenzofuran-4-yl)methyl)-[1,2,4]triazolo[4,3-c]pyrimidin-5-amine] | 0.0744 |
| Cc1cc(-c2cnc(NCc3cccc4c3CCO4)n3cnnc23)cnc1N1CCOCC1 [Example 73, N-((2,3-dihydrobenzofuran-4-yl)methyl)-8-(5-methyl-6-morpholinopyridin-3-yl)-[1,2,4]triazolo[4,3-c]pyrimidin-5-amine] | 0.332 |
| Cc1ccc(-c2cnc(NCc3c(F)ccc4c3CCO4)n3cnnc23)cn1 [Example 57, N-((5-fluoro-2,3-dihydrobenzofuran-4-yl)methyl)-8-(6-methylpyridin-3-yl)-[1,2,4]triazolo[4,3-c]pyrimidin-5-amine] | 0.0334 |
| CN(C)Cc1ccc(-c2cnc(NCc3cccc4occc34)n3cnnc23)cc1 [Example 208, N-(benzofuran-4-ylmethyl)-8-(4-((dimethylamino)methyl)phenyl)-[1,2,4]triazolo[4,3-c]pyrimidin-5-amine] | 0.019 |
| Cc1cnc(C(F)F)cc1-c1cnc(NCc2c(F)ccc3c2CCO3)n2cnnc12 [Example 198, 8-(2-(difluoromethyl)-5-methylpyridin-4-yl)-N-((5-fluoro-2,3-dihydrobenzofuran-4-yl)methyl)-[1,2,4]triazolo[4,3-c]pyrimidin-5-amine] | 0.0078 |
| Cn1nccc1-c1cnc(NCc2cccc3c2CCO3)n2cnnc12 [Example 152, N-((2,3-dihydrobenzofuran-4-yl)methyl)-8-(1-methyl-1H-pyrazol-5-yl)-[1,2,4]triazolo[4,3-c]pyrimidin-5-amine] | 0.008 |
| COc1ncc(-c2cnc(NCc3c(F)ccc4c3CCO4)n3cnnc23)c(C)n1 [Example 175, N-((5-fluoro-2,3-dihydrobenzofuran-4-yl)methyl)-8-(2-methoxy-4-methylpyrimidin-5-yl)-[1,2,4]triazolo[4,3-c]pyrimidin-5-amine] | 0.0034 |
| COc1ccc(-c2cnc(NCc3cccc4c3CCO4)n3cnnc23)cn1 [Example 21, N-((2,3-dihydrobenzofuran-4-yl)methyl)-8-(6-methoxypyridin-3-yl)-[1,2,4]triazolo[4,3-c]pyrimidin-5-amine] | 0.15 |
| Cc1cncc(-c2cnc(NCc3c(F)ccc4c3CCO4)n3cnnc23)c1 [Example 232, N-((5-fluoro-2,3-dihydrobenzofuran-4-yl)methyl)-8-(5-methylpyridin-3-yl)-[1,2,4]triazolo[4,3-c]pyrimidin-5-amine] | 0.0133 |
| Cc1ccc(-c2cnc(NCc3c(F)ccc4c3CCO4)n3cnnc23)c(C(F)F)n1 [Example 201, 8-(2-(difluoromethyl)-6-methylpyridin-3-yl)-N-((5-fluoro-2,3-dihydrobenzofuran-4-yl)methyl)-[1,2,4]triazolo[4,3-c]pyrimidin-5-amine] | 0.0036 |
| COCc1cc(-c2cnc(NCc3cccc4c3CCO4)n3cnnc23)cnc1C [Example 137, N-((2,3-dihydrobenzofuran-4-yl)methyl)-8-(5-(methoxymethyl)-6-methylpyridin-3-yl)-[1,2,4]triazolo[4,3-c]pyrimidin-5-amine] | 0.226 |
| CCOc1ccc(-c2cnc(NCc3cccc4c3CCO4)n3cnnc23)cn1 [Example 63, N-((2,3-dihydrobenzofuran-4-yl)methyl)-8-(6-ethoxypyridin-3-yl)-[1,2,4]triazolo[4,3-c]pyrimidin-5-amine] | 0.198 |
| Cn1ncc(-c2cnc(NCc3c(F)ccc4c3CCO4)n3cnnc23)c1CO [Example 227, (4-(5-(((5-fluoro-2,3-dihydrobenzofuran-4-yl)methyl)amino)-[1,2,4]triazolo[4,3-c]pyrimidin-8-yl)-1-methyl-1H-pyrazol-5-yl)methanol] | 0.0091 |
| Cc1ncc(-c2cnc(NCc3cccc4c3CCO4)n3cnnc23)cn1 [Example 60, N-((2,3-dihydrobenzofuran-4-yl)methyl)-8-(2-methylpyrimidin-5-yl)-[1,2,4]triazolo[4,3-c]pyrimidin-5-amine] | 0.299 |
| CN(C)CCN(C)C(=O)c1ccc(-c2cnc(NCc3cccc4c3CCO4)n3cnnc23)cn1 [Example 102, 5-(5-(((2,3-dihydrobenzofuran-4-yl)methyl)amino)-[1,2,4]triazolo[4,3-c]pyrimidin-8-yl)-N-(2-(dimethylamino)ethyl)-N-methylpicolinamide] | 0.285 |
| Cc1nn(C(C)C)c(C)c1-c1cnc(NCc2c(F)ccc3c2CCO3)n2cnnc12 [Example 151, N-((5-fluoro-2,3-dihydrobenzofuran-4-yl)methyl)-8-(1-isopropyl-3,5-dimethyl-1H-pyrazol-4-yl)-[1,2,4]triazolo[4,3-c]pyrimidin-5-amine] | 0.0086 |

More lines, in order of falling IC50, values ahead:

| IC50 [µM] | SMILES |
| --- | --- |
| 2.33 | O=C1CN(c2ccc(-c3cnc(NCc4cccc5c4CCO5)n4cnnc34)cn2)CCN1 [Example 104, 4-(5-(5-(((2,3-dihydrobenzofuran-4-yl)methyl)amino)-[1,2,4]triazolo[4,3-c]pyrimidin-8-yl)pyridin-2-yl)piperazin-2-one] |
| 0.261 | Nc1ccc(-c2cnc(NCc3cccc4c3CCO4)n3cnnc23)cn1 [Example 48, 8-(6-aminopyridin-3-yl)-N-((2,3-dihydrobenzofuran-4-yl)methyl)-[1,2,4]triazolo[4,3-c]pyrimidin-5-amine] |
| 0.241 | Cc1c(-c2cnc(NCc3c(F)ccc4c3C(O)CO4)n3cnnc23)ccc[n+]1[O-] (stereo not shown) [Example 244, 3-(5-(((5-fluoro-3-hydroxy-2,3-dihydrobenzofuran-4-yl)methyl)amino)-[1,2,4]triazolo[4,3-c]pyrimidin-8-yl)-2-methylpyridine 1-oxide] |
| 0.192 | Fc1ccc2c(c1CNc1ncc(F)c3nncn13)CCO2 [Example 235, 8-fluoro-N-((5-fluoro-2,3-dihydrobenzofuran-4-yl)methyl)-[1,2,4]triazolo[4,3-c]pyrimidin-5-amine] |
| 0.144 | COc1ncc(-c2cnc(NCc3cccc4c3CCO4)n3cnnc23)cn1 [Example 54, N-((2,3-dihydrobenzofuran-4-yl)methyl)-8-(2-methoxypyrimidin-5-yl)-[1,2,4]triazolo[4,3-c]pyrimidin-5-amine] |
| 0.0468 | Fc1ccc2c(c1CNc1ncc(-c3ccnc(C(F)(F)F)c3)c3nncn13)CCO2 [Example 185, N-((5-fluoro-2,3-dihydrobenzofuran-4-yl)methyl)-8-(2-(trifluoromethyl)pyridin-4-yl)-[1,2,4]triazolo[4,3-c]pyrimidin-5-amine] |
| 0.0401 | CS(=O)(=O)Nc1ccc(-c2cnc(NCc3cccc4c3CCO4)n3cnnc23)cc1 [Example 19, N-(4-(5-(((2,3-dihydrobenzofuran-4-yl)methyl)amino)-[1,2,4]triazolo[4,3-c]pyrimidin-8-yl)phenyl)methanesulfonamide] |
| 0.0298 | Fc1ccccc1-c1cnc(NCc2cccc3c2CCO3)n2cnnc12 [Example 31, N-((2,3-dihydrobenzofuran-4-yl)methyl)-8-(2-fluorophenyl)-[1,2,4]triazolo[4,3-c]pyrimidin-5-amine] |
| 0.0292 | Cc1cnc(Cl)cc1-c1cnc(NCc2c(F)ccc3c2CCO3)n2cnnc12 [Example 228, 8-(2-chloro-5-methylpyridin-4-yl)-N-((5-fluoro-2,3-dihydrobenzofuran-4-yl)methyl)-[1,2,4]triazolo[4,3-c]pyrimidin-5-amine] |
| 0.0263 | CN(C)C(=O)c1ccc(-c2cnc(NCc3c(F)ccc4c3CCO4)n3cnnc23)cn1 [Example 140, 5-(5-(((5-fluoro-2,3-dihydrobenzofuran-4-yl)methyl)amino)-[1,2,4]triazolo[4,3-c]pyrimidin-8-yl)-N,N-dimethylpicolinamide] |
| 0.0113 | Cn1cc(-c2cnc(NCc3c(F)ccc4c3CCO4)n3cnnc23)cn1 [Example 147, N-((5-fluoro-2,3-dihydrobenzofuran-4-yl)methyl)-8-(1-methyl-1H-pyrazol-4-yl)-[1,2,4]triazolo[4,3-c]pyrimidin-5-amine] |
| 0.0067 | Cc1nn(CCO)c(C)c1-c1cnc(NCc2c(F)ccc3c2CCO3)n2cnnc12 [Example 158, 2-(4-(5-(((5-fluoro-2,3-dihydrobenzofuran-4-yl)methyl)amino)-[1,2,4]triazolo[4,3-c]pyrimidin-8-yl)-3,5-dimethyl-1H-pyrazol-1-yl)ethanol] |
